# Like-named read-outs stand apart in the source and are kept apart here.
# Columns and labels:
# Experiment in all cases: LPS-stimulated whole bovine blood assay, MSD cytokine detection
# Type in all cases: cell-based
# IL-6 = conditions: Bos taurus, read-out: IL-6 (IC50 μM)
# Excerpt: In order to correlate RNA sequencing data to cytokine changes the whole blood assay was utilized. […] The enhancement result represents an overall stimulation of cytokine levels due to cellular stress or potential toxicity with increasing concentrations of the compound, representing a typical bell shape response curve for immunomodulatory activity.
# IL-1β = conditions: overstimulation of IL-1β, LPS-stimulated bovine whole blood
# TNF-α = conditions: Bos taurus, read-out: TNF-α (IC50 μM)
# [1] = LPS-stimulated bovine whole blood
Structure (SMILES),IC50 (IL-6; [1]) [µM],IC50 (TNF-α; [1]) [µM],IL-1β OS of LPS (IL-1β) [µM],IC50 (IL-6) [µM],IC50 (TNF-α) [µM]
"CCCSC[C@]1(O)[C@H](C)O[C@@H](O[C@H]2[C@H](C)[C@@H](O[C@@H]3O[C@H](C)C[C@H](N(C)C(=O)N(C)c4ccccc4)[C@H]3O)[C@](C)(O)C[C@@H](C)CN[C@H](C)[C@@H](O)[C@](C)(O)[C@@H](CC)OC(=O)[C@@H]2C)C[C@@]1(C)OC [Example D-2, 1-((2S,3R,4S,6R)-2-(((2R,3S,4R,5R,8R,10R,11R,12S,13S,14R)-2-ethyl-3,4,10-trihydroxy-13-(((2R,4R,5S,6S)-5-hydroxy-4-methoxy-4,6-dimethyl-5-((propylthio)methyl)tetrahydro-2H-pyran-2-yl)oxy)-3,5,8,10,12,14-hexamethyl-15-oxo-1-oxa-6-azacyclopentadecan-11-yl)oxy)-3-hydroxy-6-methyltetrahydro-2H-pyran-4-yl)-1,3-dimethyl-3-phenylurea]",30,20,16,,
"CCCNC[C@]1(O)[C@H](C)O[C@@H](O[C@H]2[C@H](C)[C@@H](O[C@@H]3O[C@H](C)C[C@H](N(CCC)C(=O)N(C)c4ccccc4)[C@H]3O)[C@](C)(O)C[C@@H](C)CN[C@H](C)[C@@H](O)[C@](C)(O)[C@@H](CC)OC(=O)[C@@H]2C)C[C@@]1(C)OC [Example H-69, 1-((2S,3R,4S,6R)-2-(((2R,3S,4R,5R,8R,10R,11R,12S,13S,14R)-2-ethyl-3,4,10-trihydroxy-13-(((2R,4R,5S,6S)-5-hydroxy-4-methoxy-4,6-dimethyl-5-((propylamino)methyl)tetrahydro-2H-pyran-2-yl)oxy)-3,5,8,10,12,14-hexamethyl-15-oxo-1-oxa-6-azacyclopentadecan-11-yl)oxy)-3-hydroxy-6-methyltetrahydro-2H-pyran-4-yl)-3-methyl-3-phenyl-1-propylurea]",8,14,6,,
"CC[C@H]1OC(=O)[C@H](C)[C@@H](O[C@H]2C[C@@](C)(OC)[C@@H](O)[C@H](C)O2)[C@H](C)[C@@H](O[C@@H]2O[C@H](C)C[C@H](N(C)C(=O)Nc3ccc(N(C)C)cc3)[C@H]2O)[C@](C)(O)C[C@@H](C)CN(C)[C@H](C)[C@@H](O)[C@]1(C)O [Example B-7, 3-(4-(dimethylamino)phenyl)-1-((2S,3R,4S,6R)-2-(((2R,3S,4R,5R,8R,10R,11R,12S,13S,14R)-2-ethyl-3,4,10-trihydroxy-13-(((2R,4R,5S,6S)-5-hydroxy-4-methoxy-4,6-dimethyltetrahydro-2H-pyran-2-yl)oxy)-3,5,6,8,10,12,14-heptamethyl-15-oxo-1-oxa-6-azacyclopentadecan-11-yl)oxy)-3-hydroxy-6-methyltetrahydro-2H-pyran-4-yl)-1-methylurea]",143,156,100,,
"CC[C@H]1OC(=O)[C@H](C)[C@@H](O[C@H]2C[C@@](C)(OC)[C@](O)(Cn3cnnn3)[C@H](C)O2)[C@H](C)[C@@H](O[C@@H]2O[C@H](C)C[C@H](N(C)C(=O)N(C)c3ccccc3)[C@H]2O)[C@](C)(O)C[C@@H](C)CN[C@H](C)[C@@H](O)[C@]1(C)O [Example J-29, 1-((2S,3R,4S,6R)-2-(((2R,3S,4R,5R,8R,10R,11R,12S,13S,14R)-13-(((2R,4R,5S,6S)-5-((1H-tetrazol-1-yl)methyl)-5-hydroxy-4-methoxy-4,6-dimethyltetrahydro-2H-pyran-2-yl)oxy)-2-ethyl-3,4,10-trihydroxy-3,5,8,10,12,14-hexamethyl-15-oxo-1-oxa-6-azacyclopentadecan-11-yl)oxy)-3-hydroxy-6-methyltetrahydro-2H-pyran-4-yl)-1,3-dimethyl-3-phenylurea]",,,40,56,19
"CC[C@H]1OC(=O)[C@H](C)[C@@H](O[C@H]2C[C@@](C)(OC)[C@](O)(Cn3ncnn3)[C@H](C)O2)[C@H](C)[C@@H](O[C@@H]2O[C@H](C)C[C@H](N(C)C(=O)N(C)c3ccccc3)[C@H]2O)[C@](C)(O)C[C@@H](C)CN[C@H](C)[C@@H](O)[C@]1(C)O [Example J-30, 1-((2S,3R,4S,6R)-2-(((2R,3S,4R,5R,8R,10R,11R,12S,13S,14R)-13-(((2R,4R,5S,6S)-5-((2H-tetrazol-2-yl)methyl)-5-hydroxy-4-methoxy-4,6-dimethyltetrahydro-2H-pyran-2-yl)oxy)-2-ethyl-3,4,10-trihydroxy-3,5,8,10,12,14-hexamethyl-15-oxo-1-oxa-6-azacyclopentadecan-11-yl)oxy)-3-hydroxy-6-methyltetrahydro-2H-pyran-4-yl)-1,3-dimethyl-3-phenylurea]",,,40,111,16
"CCCNC[C@]1(O)[C@H](C)O[C@@H](O[C@H]2[C@H](C)[C@@H](O[C@@H]3O[C@H](C)C[C@H](N(Cc4cccnc4)C(=O)N(C)c4ccccc4)[C@H]3O)[C@](C)(O)C[C@@H](C)CN[C@H](C)[C@@H](O)[C@](C)(O)[C@@H](CC)OC(=O)[C@@H]2C)C[C@@]1(C)OC [Example H-71, 1-((2S,3R,4S,6R)-2-(((2R,3S,4R,5R,8R,10R,11R,12S,13S,14R)-2-ethyl-3,4,10-trihydroxy-13-(((2R,4R,5S,6S)-5-hydroxy-4-methoxy-4,6-dimethyl-5-((propylamino)methyl)tetrahydro-2H-pyran-2-yl)oxy)-3,5,8,10,12,14-hexamethyl-15-oxo-1-oxa-6-azacyclopentadecan-11-yl)oxy)-3-hydroxy-6-methyltetrahydro-2H-pyran-4-yl)-3-methyl-3-phenyl-1-(pyridin-3-ylmethyl)urea]",35,32,16,,
"CC[C@H]1OC(=O)[C@H](C)[C@@H](O[C@H]2C[C@@](C)(OC)[C@](O)(CNCCCOC)[C@H](C)O2)[C@H](C)[C@@H](O[C@@H]2O[C@H](C)C[C@H](N(C)C(=O)N(C)c3ccccc3)[C@H]2O)[C@](C)(O)C[C@@H](C)CN[C@H](C)[C@@H](O)[C@]1(C)O [Example H-19, 1-((2S,3R,4S,6R)-2-(((2R,3S,4R,5R,8R,10R,11R,12S,13S,14R)-2-ethyl-3,4,10-trihydroxy-13-(((2R,4R,5S,6S)-5-hydroxy-4-methoxy-5-(((3-methoxypropyl)amino)methyl)-4,6-dimethyltetrahydro-2H-pyran-2-yl)oxy)-3,5,8,10,12,14-hexamethyl-15-oxo-1-oxa-6-azacyclopentadecan-11-yl)oxy)-3-hydroxy-6-methyltetrahydro-2H-pyran-4-yl)-1,3-dimethyl-3-phenylurea]",181,70,100,,
"CCCNC[C@]1(O)[C@H](C)O[C@@H](O[C@H]2[C@H](C)[C@@H](O[C@@H]3O[C@H](C)C[C@H](N(C)C(=O)Nc4ccccc4OC)[C@H]3O)[C@](C)(O)C[C@@H](C)CN[C@H](C)[C@@H](O)[C@](C)(O)[C@@H](CC)OC(=O)[C@@H]2C)C[C@@]1(C)OC [Example H-76, 1-((2S,3R,4S,6R)-2-(((2R,3S,4R,5R,8R,10R,11R,12S,13S,14R)-2-ethyl-3,4,10-trihydroxy-13-(((2R,4R,5S,6S)-5-hydroxy-4-methoxy-4,6-dimethyl-5-((propylamino)methyl)tetrahydro-2H-pyran-2-yl)oxy)-3,5,8,10,12,14-hexamethyl-15-oxo-1-oxa-6-azacyclopentadecan-11-yl)oxy)-3-hydroxy-6-methyltetrahydro-2H-pyran-4-yl)-3-(2-methoxyphenyl)-1-methylurea]",> 500,179,100,,

# Now from value to compound, other results behind:
IC50 (IL-6; [1]) [µM],IC50 (TNF-α; [1]) [µM],Structure (SMILES),IL-1β OS of LPS (IL-1β) [µM],IC50 (IL-6) [µM],IC50 (TNF-α) [µM]
250,70,"CC[C@H]1OC(=O)[C@H](C)[C@@H](O[C@H]2C[C@@](C)(OC)[C@](O)(CN3CCN(C)CC3)[C@H](C)O2)[C@H](C)[C@@H](O[C@@H]2O[C@H](C)C[C@H](N(C)C(=O)NC3CCCCC3)[C@H]2O)[C@](C)(O)C[C@@H](C)CN[C@H](C)[C@@H](O)[C@]1(C)O [Example J-1, 3-cyclohexyl-1-((2S,3R,4S,6R)-2-(((2R,3S,4R,5R,8R,10R,11R,12S,13S,14R)-2-ethyl-3,4,10-trihydroxy-13-(((2R,4R,5S,6S)-5-hydroxy-4-methoxy-4,6-dimethyl-5-((4-methylpiperazin-1-yl)methyl)tetrahydro-2H-pyran-2-yl)oxy)-3,5,8,10,12,14-hexamethyl-15-oxo-1-oxa-6-azacyclopentadecan-11-yl)oxy)-3-hydroxy-6-methyltetrahydro-2H-pyran-4-yl)-1-methylurea]",200,,
> 500,> 500,"CC[C@H]1OC(=O)[C@H](C)[C@@H](O[C@H]2C[C@@](C)(OC)[C@](O)(CN3CCN(C)CC3)[C@H](C)O2)[C@H](C)[C@@H](O[C@@H]2O[C@H](C)C[C@H](N(C)C(N)=O)[C@H]2O)[C@](C)(O)C[C@@H](C)CN[C@H](C)[C@@H](O)[C@]1(C)O [Example J-5, 1-((2S,3R,4S,6R)-2-(((2R,3S,4R,5R,8R,10R,11R,12S,13S,14R)-2-ethyl-3,4,10-trihydroxy-13-(((2R,4R,5S,6S)-5-hydroxy-4-methoxy-4,6-dimethyl-5-((4-methylpiperazin-1-yl)methyl)tetrahydro-2H-pyran-2-yl)oxy)-3,5,8,10,12,14-hexamethyl-15-oxo-1-oxa-6-azacyclopentadecan-11-yl)oxy)-3-hydroxy-6-methyltetrahydro-2H-pyran-4-yl)-1-methylurea]",>500,,

# — patent US12295936B2, “Immunomodulating urea azalides” (Zoetis Services LLC, priority 2020, dated 2025)
